# Measurements: the supplement of paper PMC10307832
# What was measured:
# Test in all cases: relative viability (nuclei count vs DMSO), 5 days (fraction); higher = more cells survive
# NCI-H3122 = tested on: NCI-H3122
# How it was run: (§1)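 One day after seeding in 1536-well plates, lung cancer cell lines were dosed by pin tool. Dosing was either single-drug or a fixed anchor-drug dose plus five library-drug doses (not always all listed) in √10 steps. After 5 days, nuclei were stained in one fix-and-stain step and counted on 4× images, and relative viability is the nuclei count of treated wells over that of vehicle wells, given as the median of duplicate plates.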
# HCC-366 = tested on: HCC-366
# How it was run: as §1
# NCI-H661 = tested on: NCI-H661
# How it was run: as §1
# NCI-H727 = tested on: NCI-H727
# How it was run: as §1
# COR-L 105 = tested on: COR-L 105
# How it was run: as §1
# PC-14 = tested on: PC-14
# How it was run: as §1
# NCI-H441 = tested on: NCI-H441
# How it was run: as §1
# NCI-H1437 = tested on: NCI-H1437
# How it was run: as §1
# HARA = tested on: HARA
# How it was run: as §1
# NCI-H460 = tested on: NCI-H460
# How it was run: as §1
# EKVX = tested on: EKVX
# How it was run: as §1
# NCI-H1666 = tested on: NCI-H1666
# How it was run: as §1
# CAL-12T = tested on: CAL-12T
# How it was run: as §1
# LK-2 = tested on: LK-2
# How it was run: as §1
# 201T = tested on: 201T
# How it was run: as §1
# ABC-1 = tested on: ABC-1
# How it was run: as §1
# NCI-H2170 = tested on: NCI-H2170
# How it was run: as §1
# LOU-NH91 = tested on: LOU-NH91
# How it was run: as §1
# NCI-H2009 = tested on: NCI-H2009
# How it was run: as §1
# BEN = tested on: BEN
# How it was run: as §1
structure (smiles),measurement,setting,value
Nc1ccn([C@@H]2O[C@H](CO)[C@@H](O)[C@@H]2O)c(=O)n1 [Cytarabine] + Cc1nc(NC(=O)N2CCC[C@H]2C(N)=O)sc1-c1ccnc(C(C)(C)C(F)(F)F)c1 [Alpelisib] (partner 2 µM),relative viability,NCI-H3122; first compound 0.005 µM,0.673
same,relative viability,NCI-H3122; first compound 0.01581 µM,0.699
same,relative viability,NCI-H3122; first compound 0.05 µM,0.772
same,relative viability,NCI-H3122; first compound 0.1581 µM,0.464
same,relative viability,NCI-H3122; first compound 0.5 µM,0.424
same,relative viability,HCC-366; first compound 0.005 µM,0.281
same,relative viability,HCC-366; first compound 0.01581 µM,0.228
same,relative viability,HCC-366; first compound 0.05 µM,0.104
same,relative viability,HCC-366; first compound 0.1581 µM,0.047
same,relative viability,HCC-366; first compound 0.5 µM,0.019
same,relative viability,NCI-H661; first compound 0.005 µM,0.811
same,relative viability,NCI-H661; first compound 0.01581 µM,0.733
same,relative viability,NCI-H661; first compound 0.05 µM,0.405
same,relative viability,NCI-H661; first compound 0.1581 µM,0.24
same,relative viability,NCI-H661; first compound 0.5 µM,0.214
same,relative viability,NCI-H727; first compound 0.005 µM,0.461
same,relative viability,NCI-H727; first compound 0.01581 µM,0.505
same,relative viability,NCI-H727; first compound 0.05 µM,0.388
same,relative viability,NCI-H727; first compound 0.1581 µM,0.258
same,relative viability,NCI-H727; first compound 0.5 µM,0.159
same,relative viability,COR-L 105; first compound 0.005 µM,0.86
same,relative viability,COR-L 105; first compound 0.01581 µM,1.07
same,relative viability,COR-L 105; first compound 0.05 µM,0.675
same,relative viability,COR-L 105; first compound 0.1581 µM,0.444
same,relative viability,COR-L 105; first compound 0.5 µM,0.355
same,relative viability,PC-14; first compound 0.005 µM,0.838
same,relative viability,PC-14; first compound 0.01581 µM,1.13
same,relative viability,PC-14; first compound 0.05 µM,1.05
same,relative viability,PC-14; first compound 0.1581 µM,0.512
same,relative viability,PC-14; first compound 0.5 µM,0.357
same,relative viability,NCI-H441; first compound 0.005 µM,0.542
same,relative viability,NCI-H441; first compound 0.01581 µM,0.49
same,relative viability,NCI-H441; first compound 0.05 µM,0.391
same,relative viability,NCI-H441; first compound 0.5 µM,0.165
same,relative viability,NCI-H1437; first compound 0.005 µM,0.666
same,relative viability,NCI-H1437; first compound 0.01581 µM,0.631
same,relative viability,NCI-H1437; first compound 0.05 µM,0.43
same,relative viability,NCI-H1437; first compound 0.1581 µM,0.237
same,relative viability,NCI-H1437; first compound 0.5 µM,0.151
same,relative viability,HARA; first compound 0.005 µM,0.598
same,relative viability,HARA; first compound 0.01581 µM,0.376
same,relative viability,HARA; first compound 0.05 µM,0.416
same,relative viability,HARA; first compound 0.1581 µM,0.167
same,relative viability,HARA; first compound 0.5 µM,0.143
same,relative viability,NCI-H460; first compound 0.005 µM,0.31
same,relative viability,NCI-H460; first compound 0.01581 µM,0.252
same,relative viability,NCI-H460; first compound 0.05 µM,0.121
same,relative viability,NCI-H460; first compound 0.1581 µM,0.0355
same,relative viability,NCI-H460; first compound 0.5 µM,0.0251
same,relative viability,EKVX; first compound 0.005 µM,0.867
same,relative viability,EKVX; first compound 0.01581 µM,0.893
same,relative viability,EKVX; first compound 0.05 µM,0.818
same,relative viability,EKVX; first compound 0.1581 µM,0.371
same,relative viability,EKVX; first compound 0.5 µM,0.211
same,relative viability,NCI-H1666; first compound 0.005 µM,0.751
same,relative viability,NCI-H1666; first compound 0.01581 µM,0.855
same,relative viability,NCI-H1666; first compound 0.05 µM,0.647
same,relative viability,NCI-H1666; first compound 0.1581 µM,0.279
same,relative viability,NCI-H1666; first compound 0.5 µM,0.35
same,relative viability,CAL-12T; first compound 0.005 µM,1.25
same,relative viability,CAL-12T; first compound 0.01581 µM,1.44
same,relative viability,CAL-12T; first compound 0.05 µM,1.1
same,relative viability,CAL-12T; first compound 0.1581 µM,0.514
same,relative viability,CAL-12T; first compound 0.5 µM,0.201
same,relative viability,LK-2; first compound 0.005 µM,0.641
same,relative viability,LK-2; first compound 0.01581 µM,0.716
same,relative viability,LK-2; first compound 0.05 µM,0.381
same,relative viability,LK-2; first compound 0.1581 µM,0.276
same,relative viability,LK-2; first compound 0.5 µM,0.245
same,relative viability,201T; first compound 0.005 µM,0.999
same,relative viability,201T; first compound 0.01581 µM,0.983
same,relative viability,201T; first compound 0.05 µM,1.02
same,relative viability,201T; first compound 0.1581 µM,0.887
same,relative viability,201T; first compound 0.5 µM,0.872
same,relative viability,ABC-1; first compound 0.005 µM,1.02
same,relative viability,ABC-1; first compound 0.01581 µM,1.4
same,relative viability,ABC-1; first compound 0.05 µM,1.09
same,relative viability,ABC-1; first compound 0.1581 µM,0.738
same,relative viability,ABC-1; first compound 0.5 µM,0.55
same,relative viability,NCI-H2170; first compound 0.01581 µM,0.606
same,relative viability,NCI-H2170; first compound 0.05 µM,0.562
same,relative viability,NCI-H2170; first compound 0.1581 µM,0.389
same,relative viability,NCI-H2170; first compound 0.5 µM,0.314
same,relative viability,LOU-NH91; first compound 0.005 µM,0.708
same,relative viability,LOU-NH91; first compound 0.01581 µM,0.695
same,relative viability,LOU-NH91; first compound 0.05 µM,0.603
same,relative viability,LOU-NH91; first compound 0.1581 µM,0.425
same,relative viability,LOU-NH91; first compound 0.5 µM,0.462
same,relative viability,NCI-H2009; first compound 0.005 µM,1.14
same,relative viability,NCI-H2009; first compound 0.01581 µM,1.13
same,relative viability,NCI-H2009; first compound 0.05 µM,1.26
same,relative viability,NCI-H2009; first compound 0.1581 µM,0.937
same,relative viability,NCI-H2009; first compound 0.5 µM,0.473
same,relative viability,BEN; first compound 0.005 µM,0.832
same,relative viability,BEN; first compound 0.01581 µM,0.821
same,relative viability,BEN; first compound 0.05 µM,0.634
same,relative viability,BEN; first compound 0.1581 µM,0.418
same,relative viability,BEN; first compound 0.5 µM,0.353
